For data set [1], the target named is Coagulation factor X (Homo sapiens, UniProt P00742). As to the kind of experiment: Inhibition of human Coagulation factor X.
Data set [2] deals with Prothrombin (Homo sapiens, UniProt P00734). As to the kind of experiment: Inhibitory activity against thrombin.
For data set [3], the target named is T1, Serine protease 1 (Bos taurus, UniProt P00760).
T1 sequence (P00760 whole entry): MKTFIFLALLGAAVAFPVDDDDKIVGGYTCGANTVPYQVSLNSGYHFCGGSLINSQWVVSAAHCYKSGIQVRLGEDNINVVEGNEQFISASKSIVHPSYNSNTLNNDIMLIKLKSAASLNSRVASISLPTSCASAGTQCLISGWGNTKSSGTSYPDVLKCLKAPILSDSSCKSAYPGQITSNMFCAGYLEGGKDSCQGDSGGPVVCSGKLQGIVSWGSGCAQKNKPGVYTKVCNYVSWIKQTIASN
As to the kind of experiment: Inhibitory activity against trypsin.

Data set [4] deals with T2, Coagulation factor X (Oryctolagus cuniculus, UniProt O19045).
T2 sequence (O19045 whole entry): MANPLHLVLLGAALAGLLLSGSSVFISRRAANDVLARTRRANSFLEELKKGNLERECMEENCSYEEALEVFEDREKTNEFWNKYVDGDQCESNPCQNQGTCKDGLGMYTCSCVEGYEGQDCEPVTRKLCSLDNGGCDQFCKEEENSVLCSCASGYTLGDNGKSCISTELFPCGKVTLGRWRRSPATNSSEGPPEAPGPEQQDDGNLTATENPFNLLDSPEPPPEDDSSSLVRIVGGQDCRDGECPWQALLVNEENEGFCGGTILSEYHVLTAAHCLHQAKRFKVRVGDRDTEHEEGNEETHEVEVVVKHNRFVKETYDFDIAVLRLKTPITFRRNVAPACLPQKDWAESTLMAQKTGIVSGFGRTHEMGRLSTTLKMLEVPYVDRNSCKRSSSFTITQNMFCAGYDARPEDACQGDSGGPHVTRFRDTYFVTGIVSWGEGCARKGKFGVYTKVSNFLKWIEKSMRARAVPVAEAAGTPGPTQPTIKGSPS
As to the kind of experiment: Inhibitory activity against rabbit Coagulation factor X.

The species named for data set [5] is Oryctolagus cuniculus. As to the kind of experiment: Concentration required to diminish the clot size by 50% in rabbit A-V shunt model of thrombosis. The class given is functional.
Data set [6] has as its system Canis familiaris. As to the kind of experiment: Volume of distribution after intravenous administration of 1 mg/kg/h in dog. The class given is ADME, organism-based, Canis lupus familiaris. The conditions noted are these: in vivo. More on the design: route intravenous.
A short description of data set [7]: Clearance value of compound was determined after intravenous administration of 1 mg/kg/h in dog. The conditions noted are these: in vivo. Also on record: route intravenous. The format is ADME, organism-based, Canis lupus familiaris.
A short description of data set [8]: Half-life after intravenous administration of 1 mg/kg/h in dog. The format is ADME, organism-based, Canis lupus familiaris. More on the design: route intravenous. The conditions noted are these: in vivo.
The nature of data set [9]: Volume of distribution after intravenous administration of 1 mg/kg/h in dog. The conditions noted are these: in vivo.

Consider 13 compounds from ChEMBL document CHEMBL1133078, “Isoxazolines and isoxazoles as factor Xa inhibitors” (Bioorg Med Chem Lett, 2000).

Chain of Coagulation factor X (Homo sapiens, UniProt P00742) (P00742 41-179 limits assumed): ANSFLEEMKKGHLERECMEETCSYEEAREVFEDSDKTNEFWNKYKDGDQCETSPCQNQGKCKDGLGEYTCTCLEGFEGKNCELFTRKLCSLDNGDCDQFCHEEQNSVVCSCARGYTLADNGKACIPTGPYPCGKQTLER
Chain of Coagulation factor X (Homo sapiens, UniProt P00742) (P00742 235-488 limits assumed): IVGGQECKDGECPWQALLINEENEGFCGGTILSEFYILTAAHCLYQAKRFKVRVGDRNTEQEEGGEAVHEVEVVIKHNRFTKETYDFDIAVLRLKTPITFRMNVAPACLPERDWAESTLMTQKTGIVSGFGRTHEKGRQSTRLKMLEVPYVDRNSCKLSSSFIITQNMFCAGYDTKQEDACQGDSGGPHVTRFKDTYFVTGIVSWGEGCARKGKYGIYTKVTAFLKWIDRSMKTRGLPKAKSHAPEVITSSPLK

For orientation: Ki means a dissociation constant, usually derived from enzyme kinetics or from competition with a known ligand. High values mean a looser hold on the target, low ones a stronger hold on the target. In the case of `C[C@H]1ON=C(c2cccc(C(=N)N)c2)[C@@H]1C(=O)Nc1ccc(-c2ccccc2S(N)(=O)=O)cc1`, the Ki is 1.8 nM in data set [1], 4500 nM in data set [2] and 110 nM in data set [3].

In the case of `COCC1(C(=O)Nc2ccc(-c3ccccc3S(N)(=O)=O)cc2)CC(c2cccc(C(=N)N)c2)=NO1` (stereo not drawn), the Ki in data set [4] came out at 0.8 nM; in data set [3], 70 nM. The compound also gave an ID50 in [5] of 0.26 µM/h/kg.

Turning to `N=C(N)c1cccc(C2=NOC(Cn3cnnn3)(C(=O)Nc3ccc(-c4ccccc4S(N)(=O)=O)cc3)C2)c1` (stereo not drawn), the Ki in data set [3] stood at 91 nM.

The term Vdss denotes a proportionality between amount in the body and measured concentration, not a real space. High values mean wide distribution into tissue, low ones little distribution into tissue. A word on the clearance: it is the rate of elimination divided by the concentration. A lower clearance goes with inefficient removal. Usually half-life stands for the time needed for the level to fall by half in the phase considered. With `N=C(N)c1cccc(C2=NO[C@H](Cn3cnnn3)[C@H]2C(=O)Nc2ccc(-c3ccccc3S(N)(=O)=O)cc2)c1`, the Vdss in [6] came to 0.24 L/kg. In addition, the figures for the Ki in [1], in data set [2] and in data set [3] were 2.3 nM, 5700 nM and 180 nM, respectively. Also, in data set [7], the clearance was 8.17 mL/min/kg. In data set [8], this compound had a half-life of 1 h.

For `N=C(N)c1cccc(-c2noc(C(F)(F)F)c2C(=O)Nc2ccc(-c3ccccc3S(N)(=O)=O)cc2)c1`, the results for the Ki in data set [1], in data set [2] and in data set [3] were 9.5 nM, 11000 nM and 400 nM, respectively.

For the compound `N=C(N)c1cccc(-c2noc(CO)c2C(=O)Nc2ccc(-c3ccccc3S(N)(=O)=O)cc2)c1`, the inhibitory constant (Ki) in [1] was determined as 0.5 nM; in [2] it was 1900 nM; in [3] it was 50 nM.

Turning to `COCc1onc(-c2cccc(C(=N)N)c2)c1C(=O)Nc1ccc(-c2ccccc2S(N)(=O)=O)cc1`, in [6], the Vdss came out at 0.85 L/kg. Also, the Ki in data set [1] amounted to 0.63 nM; in data set [2], 3800 nM; in data set [3], 76 nM. Also, in data set [7], the clearance was 28.3 mL/min/kg. The compound also gave a half-life in data set [8] of 1.2 h.

For `COCc1onc(-c2cccc(C(=N)N)c2)c1C(=O)Nc1ccc(-c2ccccc2S(N)(=O)=O)cn1`, the inhibition constant Ki in data set [2] came out at 12000 nM; in data set [3] it was 200 nM.

On to `COC[C@H]1ON=C(c2cccc(C(=N)N)c2)[C@@H]1C(=O)Nc1ccc(-c2ccccc2S(N)(=O)=O)cc1`, for which the Ki in data set [4] stood at 0.64 nM; in data set [2] it was 4600 nM; in data set [3], 190 nM. Besides, in data set [7], the clearance is 16.5 mL/min/kg. In data set [9], this compound yielded a Vdss of 0.38 L/kg. The compound further gave a half-life in data set [8] of 1.2 h. The ID50 in data set [5] amounted to 0.21 µM/h/kg.

In turn, `CC1(C(=O)Nc2ccc(-c3ccccc3S(N)(=O)=O)cc2)CC(c2cccc(C(=N)N)c2)=NO1` (stereo not drawn) showed an inhibition constant (Ki) in data set [3] of 120 nM.

Turning to `N=C(N)c1cccc(-c2nocc2C(=O)Nc2ccc(-c3ccccc3S(N)(=O)=O)cc2)c1`, the figures for the Ki in data set [4], in data set [2] and in data set [3] were 0.4 nM, 2000 nM and 21 nM, respectively. In data set [6], the Vdss was 1.7 L/kg. In [7], this compound gave a clearance of 25 mL/min/kg. In [8], the half-life is 4.3 h. Besides, the ID50 in data set [5] is 0.31 µM/h/kg.

As for `N=C(N)c1cccc(-c2noc(N)c2C(=O)Nc2ccc(-c3ccccc3S(N)(=O)=O)cc2)c1`, the Ki in [1] stood at 3.4 nM; in data set [2], 4000 nM; in [3], 117 nM.

As to `CS(=O)(=O)c1ccccc1-c1ccc(NC(=O)c2conc2-c2cccc(C(=N)N)c2)cc1`, the values for the inhibition constant Ki in data set [1], in data set [2] and in [3] were 0.1 nM, 540 nM and 25 nM, respectively.
